Test results from paper PMC12673082 (Nature Communications, 2025).
Residue numbers refer to the chain shown, from its start. Blank lines part the entries; values can stand above or below the compound they belong to.

Columns and labels:
[1] = system: human P2X7; settings: cited from earlier work
[2] = molecular target: T1, mP2X7 (Mus musculus, UniProt Q9Z1M0); assay: Whole-cell patch clamp, ATP-evoked current, transfected HEK293; assay type: cell-based
T1 sequence (Q9Z1M0 1-595): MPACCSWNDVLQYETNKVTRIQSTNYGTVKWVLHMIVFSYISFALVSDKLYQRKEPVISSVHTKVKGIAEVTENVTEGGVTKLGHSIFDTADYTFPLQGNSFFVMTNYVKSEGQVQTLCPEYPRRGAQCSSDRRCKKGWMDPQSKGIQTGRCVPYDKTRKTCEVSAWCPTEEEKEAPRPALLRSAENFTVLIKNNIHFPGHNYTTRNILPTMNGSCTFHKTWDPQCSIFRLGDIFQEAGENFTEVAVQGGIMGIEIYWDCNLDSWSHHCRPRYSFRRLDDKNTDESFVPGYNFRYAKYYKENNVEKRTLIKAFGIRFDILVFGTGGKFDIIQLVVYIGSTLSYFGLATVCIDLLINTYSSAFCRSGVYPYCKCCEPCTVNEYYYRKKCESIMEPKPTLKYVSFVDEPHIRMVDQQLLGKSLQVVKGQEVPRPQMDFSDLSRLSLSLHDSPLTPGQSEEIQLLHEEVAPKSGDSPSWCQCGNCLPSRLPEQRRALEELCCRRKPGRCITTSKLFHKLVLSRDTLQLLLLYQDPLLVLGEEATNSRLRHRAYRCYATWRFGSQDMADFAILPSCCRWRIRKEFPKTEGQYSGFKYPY

[3] = molecular target: T2, mP2X7 A312V (Mus musculus, UniProt Q9Z1M0, A312V); assay: Whole-cell patch clamp, mP2X7 mutant; assay type: cell-based; settings: read-out: EC50 (apparent affinity for ATP); m7A312V
T2 sequence (Q9Z1M0 1-595 A312V): T1 sequence (Q9Z1M0 1-595) with A312V

[4] = molecular target: hP2X7 E305F (Homo sapiens, UniProt Q99572, E305F); assay: Whole-cell patch clamp, hP2X7 mutant; assay type: cell-based
[5] = molecular target: T3, rP2X7 (Rattus norvegicus, UniProt Q64663); assay: Whole-cell patch clamp, ATP-evoked current, transfected HEK293; assay type: cell-based; settings: HEK293, read-out: inhibition rate
T3 sequence (Q64663 1-595): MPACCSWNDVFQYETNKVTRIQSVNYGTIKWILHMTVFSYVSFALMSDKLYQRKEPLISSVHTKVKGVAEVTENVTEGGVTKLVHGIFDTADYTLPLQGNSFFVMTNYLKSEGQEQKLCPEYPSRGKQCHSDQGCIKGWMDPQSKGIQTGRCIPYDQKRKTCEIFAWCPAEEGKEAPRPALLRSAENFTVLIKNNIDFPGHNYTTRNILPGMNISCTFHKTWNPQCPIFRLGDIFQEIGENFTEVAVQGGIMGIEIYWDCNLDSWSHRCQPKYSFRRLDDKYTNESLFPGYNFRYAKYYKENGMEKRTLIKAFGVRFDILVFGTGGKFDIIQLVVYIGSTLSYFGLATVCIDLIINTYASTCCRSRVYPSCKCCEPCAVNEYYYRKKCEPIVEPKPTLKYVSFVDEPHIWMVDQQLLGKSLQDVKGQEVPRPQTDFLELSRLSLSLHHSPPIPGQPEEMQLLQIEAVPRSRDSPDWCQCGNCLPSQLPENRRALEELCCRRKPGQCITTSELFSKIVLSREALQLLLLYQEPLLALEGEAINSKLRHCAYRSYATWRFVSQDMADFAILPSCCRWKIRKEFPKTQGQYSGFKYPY

[6] = molecular target: hP2X7 F103A (Homo sapiens, UniProt Q99572, F103A); assay: Whole-cell patch clamp, hP2X7 mutant; assay type: cell-based; settings: h7F103A, 30 μM (Fig. S3b)
[7] = molecular target: T4, hP2X7 (Homo sapiens, UniProt Q99572); assay: Whole-cell patch clamp, ATP-evoked current, transfected HEK293; assay type: cell-based
T4 sequence (Q99572 1-595): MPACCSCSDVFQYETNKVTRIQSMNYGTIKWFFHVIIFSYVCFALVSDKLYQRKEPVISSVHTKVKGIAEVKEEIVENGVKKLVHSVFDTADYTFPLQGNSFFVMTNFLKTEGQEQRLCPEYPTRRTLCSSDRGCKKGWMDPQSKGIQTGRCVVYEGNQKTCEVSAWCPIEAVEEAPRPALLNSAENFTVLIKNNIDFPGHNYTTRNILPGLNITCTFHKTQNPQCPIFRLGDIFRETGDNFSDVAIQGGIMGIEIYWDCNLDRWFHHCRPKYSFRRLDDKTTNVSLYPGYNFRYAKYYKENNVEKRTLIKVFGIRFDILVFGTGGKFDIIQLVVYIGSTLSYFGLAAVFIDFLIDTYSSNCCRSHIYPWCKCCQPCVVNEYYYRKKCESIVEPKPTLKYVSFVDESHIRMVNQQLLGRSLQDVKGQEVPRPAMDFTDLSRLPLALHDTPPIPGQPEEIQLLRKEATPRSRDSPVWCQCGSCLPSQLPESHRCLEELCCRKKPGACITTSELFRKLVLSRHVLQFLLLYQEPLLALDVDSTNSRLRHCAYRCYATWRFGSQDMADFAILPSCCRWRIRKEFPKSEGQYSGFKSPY

[8] = molecular target: hP2X7 Y295F (Homo sapiens, UniProt Q99572, Y295F); assay: Whole-cell patch clamp, hP2X7 mutant; assay type: cell-based
[9] = molecular target: hP2X7 M140E (Homo sapiens, UniProt Q99572, M140E); assay: Whole-cell patch clamp, hP2X7 mutant; assay type: cell-based; settings: h7M140E, 30 μM (Fig. S3b)
[10] = molecular target: hP2X7 I68F (Homo sapiens, UniProt Q99572, I68F); assay: Whole-cell patch clamp, hP2X7 mutant; assay type: cell-based
[11] = molecular target: hP2X7 E305C (Homo sapiens, UniProt Q99572, E305C); assay: Whole-cell patch clamp, hP2X7 mutant; assay type: cell-based; settings: h7E305C, 30 μM (Fig. S3b)
[12] = molecular target: hP2X7 F88A (Homo sapiens, UniProt Q99572, F88A); assay: Whole-cell patch clamp, hP2X7 mutant; assay type: cell-based; settings: h7F88A, 30 μM (Fig. S3b)
[13] = molecular target: hP2X7 V312A (Homo sapiens, UniProt Q99572, V312A); assay: Whole-cell patch clamp, hP2X7 mutant; assay type: cell-based
[14] = system: human P2X4; settings: cited from earlier work
[15] = system: human P2X7; assay: Literature IC50; settings: from Table S1 values
[16] = system: human P2X3; settings: read-out: IC50 (half-maximal inhibitory concentration); hP2X3; cited from earlier work
[17] = HEK293, read-out: inhibition rate

hP2X7 Y295F, sequence (Q99572 whole entry Y295F): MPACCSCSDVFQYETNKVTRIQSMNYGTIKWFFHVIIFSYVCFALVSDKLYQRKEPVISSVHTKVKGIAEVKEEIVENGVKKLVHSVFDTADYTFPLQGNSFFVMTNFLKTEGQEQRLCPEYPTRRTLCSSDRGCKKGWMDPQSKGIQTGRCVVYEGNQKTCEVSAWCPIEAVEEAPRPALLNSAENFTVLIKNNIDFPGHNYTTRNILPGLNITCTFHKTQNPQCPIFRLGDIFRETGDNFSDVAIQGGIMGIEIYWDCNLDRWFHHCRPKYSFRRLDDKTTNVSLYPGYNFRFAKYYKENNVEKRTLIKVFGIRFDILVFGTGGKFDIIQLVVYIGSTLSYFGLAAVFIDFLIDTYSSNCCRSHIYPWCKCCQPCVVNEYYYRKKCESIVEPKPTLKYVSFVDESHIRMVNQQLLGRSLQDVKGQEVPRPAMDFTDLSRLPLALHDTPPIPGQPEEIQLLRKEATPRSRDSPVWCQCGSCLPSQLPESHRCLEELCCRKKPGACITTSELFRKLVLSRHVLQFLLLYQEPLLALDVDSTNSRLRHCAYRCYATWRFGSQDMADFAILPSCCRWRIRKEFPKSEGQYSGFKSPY
hP2X7 V312A, sequence (Q99572 whole entry V312A): as the sequence (Q99572 whole entry Y295F) above, with F295Y, V312A counted along it
hP2X7 E305F, sequence (Q99572 whole entry E305F): as the sequence (Q99572 whole entry Y295F) above, with F295Y, E305F counted along it
hP2X7 I68F, sequence (Q99572 whole entry I68F): as the sequence (Q99572 whole entry Y295F) above, with I68F, F295Y counted along it
hP2X7 F88A, sequence (Q99572 whole entry F88A): as the sequence (Q99572 whole entry Y295F) above, with F88A, F295Y counted along it
hP2X7 F103A, sequence (Q99572 whole entry F103A): as the sequence (Q99572 whole entry Y295F) above, with F103A, F295Y counted along it
hP2X7 E305C, sequence (Q99572 whole entry E305C): as the sequence (Q99572 whole entry Y295F) above, with F295Y, E305C counted along it
hP2X7 M140E, sequence (Q99572 whole entry M140E): as the sequence (Q99572 whole entry Y295F) above, with M140E, F295Y counted along it

Compound: COc1ccc(CC(=O)NC(NC(=NC#N)Nc2cccc3ncccc23)C(C)(C)C)cc1OC (centres unmarked) [A740003, N-(1-{[(cyanoimino)(5-quinolinylamino)methyl]amino}-2,2-dimethylpropyl)-2-(3,4-dimethoxyphenyl)acetamide]
IC50 ([1]; P2X7): 0.0437 µM
fold difference in IC50 between hP2X7 and mP2X7 [1]: 37 fold

Compound: CC(C)c1cc(Br)c(NC(=O)Nc2cccnc2)c(Br)c1 [BX430]
IC50 ([14]; P2X4): 0.54 µM
IC50 for hP2X4, fold lower than for mP2X4 and rP2X4 [14]: more than 20 fold
fold difference between hP2X4 and mP2X4 [14]: > 20 fold

Compound: CNC(=O)c1cc(F)c(-c2nc3cc(C)ccn3c2C[C@H]2CN(C(=O)OC)CCO2)c(F)c1 [BLU-5937]
IC50 [16]: 0.025 µM

Other lines, results leading:

EC50 ([2]; read-out: EC50 (apparent affinity for ATP), m7WT): 782 ± 71 µM
EC50 [3]: 1420 ± 170 µM
Compound: Nc1ncnc2c1ncn2[C@@H]1O[C@H](COP(=O)(O)OP(=O)(O)OP(=O)(O)O)[C@@H](O)[C@H]1O [ATP, reference compound]

inhibition at 300 µM [2, 17]: 8.02 ± 2.7%
IC50 [4]: 87.7 ± 4.3 µM
inhibitory effect vs h7WT ([4]; h7E305F, 30 μM (Fig. S3b)): notably attenuated
inhibition at 300 µM [5]: 19.2 ± 4.3%
inhibitory effect vs h7WT [6]: notably attenuated
IC50 [7]: 12.7 ± 0.9 µM
IC50 [8]: 46.6 ± 7.8 µM
inhibitory effect vs h7WT ([8]; h7Y295F, 30 μM (Fig. S3b)): notably attenuated
inhibitory effect vs h7WT [9]: notably attenuated
IC50 [10]: 39.9 ± 5.8 µM
inhibitory effect vs h7WT ([10]; h7I68F, 30 μM (Fig. S3b)): notably attenuated
inhibitory effect vs h7WT [11]: notably attenuated
inhibitory effect vs h7WT [12]: notably attenuated
IC50 [13]: > 300 µM
inhibitory effect vs h7WT ([13]; h7V312A, 30 μM (Fig. S3b)): notably attenuated
Compound: COc1ccc2cc3[n+](cc2c1OC)CCc1cc2c(cc1-3)OCO2 [berberine]

apparent affinity (IC50) for hP2X7, fold higher than for mP2X7 [15]: 500 fold
apparent affinity (IC50) for hP2X7, fold higher than for rP2X7 [15]: 1587 fold
Compound: O=C(CC12CC3CC(CC(C3)C1)C2)Nc1cccc2nc(NCCNCCO)ccc12 [AZ10606120]

inhibition at 30 µM [2, 17]: 11.8 ± 6.1%
inhibition at 30 µM [5]: 12.1 ± 2.4%
IC50 [7]: 12.6 ± 2.9 µM
fold difference in affinity for hP2X7 between PSFL1191 and PSFL1190 [7]: more than 50 fold
Compound: C=CC[C@H]1c2ccc(OC)c(OC)c2CN2CCc3cc4c(cc3[C@@H]12)OCO4 [PSFL1190, (13S,13aR)-13-allyl-9,10-dimethoxy-5,8,13,13a-tetrahydro-6H-1,3dioxolo[4,5-g] isoquinolino[3,2-a]isoquinoline]
